As usually defined, the Emax is the size of the effect at its maximum, as opposed to the concentration needed.

The text below walks through data of patent US10759751B2, “Substituted spirocyclohexanes as muscarinic M1 receptor and/or M4 receptor agonists” (Heptares Therapeutics Limited, priority 2016, dated 2020).

What all share (type): cell-based
Assay [1] deals with T1, human muscarinic M1 receptor (Homo sapiens, UniProt P11229).
T1 sequence (P11229 1-460): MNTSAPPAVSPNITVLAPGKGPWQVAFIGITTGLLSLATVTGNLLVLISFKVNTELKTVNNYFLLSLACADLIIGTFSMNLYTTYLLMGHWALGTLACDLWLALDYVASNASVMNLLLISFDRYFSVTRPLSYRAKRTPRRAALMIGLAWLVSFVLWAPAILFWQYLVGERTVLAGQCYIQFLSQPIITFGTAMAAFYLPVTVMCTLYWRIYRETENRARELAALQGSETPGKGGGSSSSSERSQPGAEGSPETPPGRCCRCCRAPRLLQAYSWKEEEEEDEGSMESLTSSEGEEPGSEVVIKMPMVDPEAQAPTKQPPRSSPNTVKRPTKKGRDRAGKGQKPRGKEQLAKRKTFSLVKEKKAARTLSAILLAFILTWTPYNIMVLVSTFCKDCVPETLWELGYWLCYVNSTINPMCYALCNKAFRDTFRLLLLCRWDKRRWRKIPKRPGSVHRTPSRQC
Description: Alphascreen Surefire phospho-ERK1/2 functional assay, M1. To be noted: for M1 % Emax cf. ACh / EC50: CHO cells stably expressing human M1; for EC50: phospho-ERK1/2, read-out: pEC50 M1 (converted); for Emax: CHO. Put shortly:
(§1)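 Read-out: AlphaScreen SureFire signal for phospho-ERK1/2 in lysates of stably transfected CHO cells, read after 2 h in the dark. Cells were serum-starved overnight and given agonist for 5 min at 37 °C. Values are pEC50 and Emax.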
On the technique in general: In Alpha technology, singlet oxygen from a donor bead excites a nearby acceptor bead.

The target of assay [2] is T2, human muscarinic M2 receptor (Homo sapiens, UniProt P08172).
T2 sequence (P08172 1-466): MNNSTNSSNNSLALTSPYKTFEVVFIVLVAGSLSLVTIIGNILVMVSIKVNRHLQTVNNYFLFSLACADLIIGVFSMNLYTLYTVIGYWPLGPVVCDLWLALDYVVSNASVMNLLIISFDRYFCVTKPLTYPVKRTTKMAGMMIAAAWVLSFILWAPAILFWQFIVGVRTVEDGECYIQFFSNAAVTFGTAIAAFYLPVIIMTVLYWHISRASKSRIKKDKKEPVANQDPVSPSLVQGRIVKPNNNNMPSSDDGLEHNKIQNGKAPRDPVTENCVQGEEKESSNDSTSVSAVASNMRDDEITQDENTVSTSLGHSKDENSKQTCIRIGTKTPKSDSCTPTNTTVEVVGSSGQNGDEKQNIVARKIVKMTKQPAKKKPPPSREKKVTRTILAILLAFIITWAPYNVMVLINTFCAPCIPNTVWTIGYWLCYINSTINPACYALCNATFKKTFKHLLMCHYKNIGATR
In words: Alphascreen Surefire phospho-ERK1/2 functional assay, M2. To be noted: for EC50: CHO cells stably expressing human M2, phospho-ERK1/2, read-out: pEC50 M2 (converted); for Emax: CHO, read-out: M2 % Emax cf. ACh. Put shortly: as §1

Assay [3] has as its target T3, human muscarinic M3 receptor (Homo sapiens, UniProt P20309).
T3 construct: expressed in transfected cells
Description: Alphascreen Surefire phospho-ERK1/2 functional assay, M3. To be noted: for EC50: CHO cells stably expressing human M3, phospho-ERK1/2, read-out: pEC50 M3 (converted); for Emax: CHO, read-out: M3 % Emax cf. ACh. Put shortly:
as §1

In assay [4] the target is T4, human muscarinic M4 receptor (Homo sapiens, UniProt P08173).
T4 construct: expressed in transfected cells
T4 sequence (P08173 1-479): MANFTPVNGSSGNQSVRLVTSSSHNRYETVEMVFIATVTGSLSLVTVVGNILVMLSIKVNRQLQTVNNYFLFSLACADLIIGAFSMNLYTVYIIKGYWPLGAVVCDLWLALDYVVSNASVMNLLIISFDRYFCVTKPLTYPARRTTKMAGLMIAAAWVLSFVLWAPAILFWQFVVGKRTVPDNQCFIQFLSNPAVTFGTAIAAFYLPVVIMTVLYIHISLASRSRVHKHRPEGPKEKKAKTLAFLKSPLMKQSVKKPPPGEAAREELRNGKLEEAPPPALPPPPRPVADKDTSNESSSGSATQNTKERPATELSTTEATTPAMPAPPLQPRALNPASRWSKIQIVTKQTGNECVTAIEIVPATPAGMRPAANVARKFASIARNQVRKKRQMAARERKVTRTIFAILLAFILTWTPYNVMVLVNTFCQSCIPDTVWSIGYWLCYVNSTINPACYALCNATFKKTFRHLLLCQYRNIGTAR
In words: Alphascreen Surefire phospho-ERK1/2 functional assay, M4. To be noted: for M4 % Emax cf. ACh / EC50: CHO cells stably expressing human M4; for EC50: phospho-ERK1/2, read-out: pEC50 M4 (converted); for Emax: CHO. An outline of the steps:
as §1

Setting [5] is: read-out: M1 % Emax cf. ACh, CHO cells stably expressing human M1, Emax relative to ACh.
[6] abbreviates: read-out: M4 % Emax cf. ACh, CHO cells stably expressing human M4, Emax relative to ACh.

The structures appear in SMILES notation. Where two headings read alike, the source gives them in different places.

T3 sequence (P20309 whole entry): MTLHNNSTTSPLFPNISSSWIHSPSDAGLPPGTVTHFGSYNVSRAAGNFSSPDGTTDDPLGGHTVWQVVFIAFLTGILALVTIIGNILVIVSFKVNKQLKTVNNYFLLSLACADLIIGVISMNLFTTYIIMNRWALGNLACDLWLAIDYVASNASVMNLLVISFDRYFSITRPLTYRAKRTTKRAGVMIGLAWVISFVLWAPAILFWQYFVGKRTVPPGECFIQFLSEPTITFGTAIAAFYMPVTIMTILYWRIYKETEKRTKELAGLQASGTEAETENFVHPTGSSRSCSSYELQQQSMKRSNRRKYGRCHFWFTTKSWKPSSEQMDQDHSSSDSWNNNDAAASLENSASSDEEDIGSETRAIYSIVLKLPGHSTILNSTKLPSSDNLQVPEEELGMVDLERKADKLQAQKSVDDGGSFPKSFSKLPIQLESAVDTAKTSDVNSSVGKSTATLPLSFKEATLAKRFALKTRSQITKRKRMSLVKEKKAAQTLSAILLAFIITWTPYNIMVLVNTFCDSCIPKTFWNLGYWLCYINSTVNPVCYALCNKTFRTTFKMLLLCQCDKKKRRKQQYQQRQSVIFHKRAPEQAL

Take `CCOC(=O)N1CCCN(C2CCC3(CC2)C(=O)Nc2cc(C)ccc23)CC1` (single isomer, unassigned) [4-6 isomer 2]: in assay [1] (Emax relative to ACh), the “M1 % Emax cf. ACh” value was determined as 130%. Moreover, the EC50 in assay [1] is 36.3 nM; in assay [2], greater than 15800 nM; in assay [3], greater than 15800 nM; in assay [4], 75.9 nM. The results for the Emax in assay [2] and in assay [3] were 39% and 17%, respectively. Further, the “M4 % Emax cf. ACh” value in assay [4] (Emax relative to ACh) was 116%.

Take `CCOC(=O)N1CCCN(C2CCC(C#N)(c3ccc(OC)cc3)CC2)CC1` (mixture of isomers) [3-9 mixture of isomers]: the EC50 in assay [1] is 115 nM; in assay [2], greater than 20000 nM; in assay [3], greater than 20000 nM; in assay [4] it was greater than 20000 nM. The maximal response (Emax) in assay [1] (setting [5]) was 98%; in assay [2], 33%; in assay [3] it was 0%; in assay [4] (setting [6]), 2%.

Regarding `C#CCOC(=O)N1CCCN(C2CCC(C#N)(c3ccc(OC)cn3)CC2)CC1` (single isomer, unassigned) [3-31 Isomer 1], the EC50 is 19.5 nM in assay [1], greater than 20000 nM in assay [2], greater than 20000 nM in assay [3] and 2570 nM in assay [4]. Besides, the maximal effect (Emax) in assay [1] (setting [5]) was found to be 91%; in assay [2], 8%; in assay [3] it was 0%; in assay [4] (setting [6]), 52%.

Turning to `CCOC(=O)N[C@H]1CCN(C2CCC(C#N)(c3cccc(F)c3)CC2)C1` (single isomer, unassigned) [1-3 Isomer 2], the EC50 in assay [1] was 30.9 nM; in assay [2], greater than 20000 nM; in assay [3] it was greater than 20000 nM; in assay [4] it was greater than 20000 nM. Moreover, the Emax stood at 119% in assay [1] (setting [5]), 0% in assay [2], 1% in assay [3] and 13% in assay [4] (setting [6]).

On to `CCOC(=O)N[C@H]1CCN(C2CCC(C#N)(c3cccc(OC)c3)CC2)C1` (single isomer, unassigned) [1-11 Isomer 2], for which the EC50 was 148 nM in assay [1], greater than 20000 nM in assay [2], greater than 20000 nM in assay [3] and greater than 20000 nM in assay [4]. For the same compound, the Emax in assay [1] (setting [5]) turned out to be 99%; in assay [2], 0%; in assay [3] it was 1%; in assay [4] (setting [6]), 9%.

As for `CCOC(=O)N(C)[C@H]1CCN(C2CCC(C#N)(c3ccccc3)CC2)C1` (single isomer, unassigned) [1-20 Isomer 2], the EC50 in assay [1] was 148 nM; in assay [2] it was greater than 20000 nM; in assay [3], greater than 20000 nM; in assay [4], greater than 20000 nM. For the same compound, the Emax was determined as 78% in assay [1] (read-out: M1 % Emax cf. ACh), 0% in assay [2], 0% in assay [3] and 19% in assay [4] (read-out: M4 % Emax cf. ACh).

With `CCc1noc(C2CC3(CCN(C4CCC5(CC4)C(=O)Nc4ccccc45)C3)C2)n1` (single isomer, unassigned) [26-3 Isomer 1], the EC50 in assay [1] is 93.3 nM; in assay [2], greater than 20000 nM; in assay [3], greater than 20000 nM; in assay [4], 28.8 nM. Moreover, the maximal effect (Emax) worked out at 31% in assay [1] (setting [5]), 11% in assay [2], 19% in assay [3] and 72% in assay [4] (setting [6]).

For the compound `CCOC(=O)N[C@@H]1CCN(C2CCC(C#N)(c3ccccc3F)CC2)C1` (single isomer, unassigned) [1-5 Isomer 2], the EC50 in assay [1] was 115 nM; in assay [2] it was greater than 20000 nM; in assay [3] it was greater than 20000 nM; in assay [4], greater than 20000 nM. Besides, the maximum response (Emax) was 125% in assay [1] (setting [5]), 5% in assay [2], 33% in assay [3] and 46% in assay [4] (setting [6]).

Regarding `CCOC(=O)N1CCCN(C2CCC3(CC2)C(=O)Nc2cccc(C)c23)CC1` (single isomer, unassigned) [4-8 isomer 2], the “M1 % Emax cf. ACh” value in assay [1] (Emax relative to ACh) worked out at 97%. In addition, the EC50 was 204 nM in assay [1], greater than 20000 nM in assay [2], greater than 20000 nM in assay [3] and 97.7 nM in assay [4]. The results for the maximum response (Emax) in assay [2] and in assay [3] were 17% and 9%, respectively. Also, in assay [4] (Emax relative to ACh), the “M4 % Emax cf. ACh” value stood at 95%.

As to `CCOC(=O)N1CCCN(C2CCC(C#N)(c3cccc(Cl)c3)CC2)CC1` (mixture of isomers) [3-5 mixture of isomers], the EC50 in assay [1] was 83.2 nM; in assay [2], greater than 20000 nM; in assay [3], greater than 20000 nM; in assay [4] it was 309 nM. Besides, the Emax in assay [1] (setting [5]) is 101%; in assay [2], 5%; in assay [3] it was 36%; in assay [4] (setting [6]), 47%.

Turning to `CCOC(=O)N[C@H]1CCN(C2CCC(C#N)(c3ccc(F)cc3)CC2)C1` (single isomer, unassigned) [1-4 Isomer 2], the EC50 was 35.5 nM in assay [1], greater than 20000 nM in assay [2], greater than 20000 nM in assay [3] and greater than 20000 nM in assay [4]. Moreover, the Emax in assay [1] (setting [5]) was 98%; in assay [2], 3%; in assay [3] it was 8%; in assay [4] (setting [6]) it was 7%.

In the case of `CC#CCOC(=O)N1CCCN(C2CCC(C#N)(c3ccc(OC)cn3)CC2)CC1` (single isomer, unassigned) [3-32 Isomer 1], the EC50 is 22.4 nM in assay [1], greater than 20000 nM in assay [2], greater than 20000 nM in assay [3] and 759 nM in assay [4]. The maximum response (Emax) in assay [1] (setting [5]) is 106%; in assay [2], 2%; in assay [3], 0%; in assay [4] (setting [6]), 30%.

Take `CCOC(=O)N1CCC2(CCN(C3CCC4(CC3)C(=O)N(C(=O)OCC)c3ccccc34)CC2)C1` (single isomer, unassigned) [12-2 isomer 1]: the EC50 in assay [1] was 25.7 nM; in assay [2], greater than 20000 nM; in assay [3], greater than 20000 nM; in assay [4] it was 10.7 nM. Further, the Emax turned out to be 65% in assay [1] (setting [5]), 27% in assay [2], 0% in assay [3] and 48% in assay [4] (setting [6]).

On to `CCOC(=O)NCC1CCN(C2CCC3(CC2)C(=O)Nc2ccccc23)CC1` (single isomer, unassigned) [7-2 isomer 1], for which the “M1 % Emax cf. ACh” value in assay [1] (Emax relative to ACh) is on record as 122%. The EC50 in assay [1] is 75.9 nM; in assay [2], greater than 20000 nM; in assay [3] it was greater than 20000 nM; in assay [4], 170 nM. The values for the Emax in assay [2] and in assay [3] were 37% and 3%, respectively. Besides, the “M4 % Emax cf. ACh” value in assay [4] (Emax relative to ACh) was 32%.

Turning to `CCOC(=O)N1CCCN(C2CCC(C#N)(c3ccc(Cl)cn3)CC2)CC1` (mixture of isomers) [3-16 mixture of isomers], the EC50 in assay [1] is 6.61 nM; in assay [2], greater than 20000 nM; in assay [3], greater than 20000 nM; in assay [4], 126 nM. For the same compound, the maximal effect (Emax) in assay [1] (setting [5]) was 103%; in assay [2], 10%; in assay [3], 39%; in assay [4] (setting [6]) it was 90%.
